{
  "source": "paper PMC10998878",
  "about": "“Inhibition of acyl-CoA binding protein (ACBP) by means of a GABAARγ2-derived peptide” (Cell Death & Disease, 2024)",
  "key": {"[1]": {"target": "T1, recombinant murine ACBP/DBI (Mus musculus, UniProt P31786)", "T1 construct": "biotin (biotinylated); purchased Institute of Psychiatry and Neuroscience of Paris, France", "T1 sequence (P31786 1-87)": "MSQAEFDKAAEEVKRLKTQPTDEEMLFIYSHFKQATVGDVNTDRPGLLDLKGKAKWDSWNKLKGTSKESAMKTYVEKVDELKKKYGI", "assay": "Surface plasmon resonance (Biacore 2000) real time interaction analysis", "type": "binding", "conditions": "for interaction with recombinant ACBP/DBI, in words: surface plasmon resonance, HBS-EP pH 7.4, 25 °C, 10 µM and 100 µM peptide", "procedure": "Kinetics of interaction of recombinant murine ACBP/DBI (Institute of Psychiatry and Neuroscience of Paris, France) with GABAARγ2 -derived eicosapeptide or its mutated derivative (synthesized by Biosynth ltd) was analyzed by surface plasmon resonance-based biosensor system – Biacore 2000 (Cytiva Life Sciences, Biacore, Uppsala, Sweden). SA sensor chip (Cytiva Life Sciences, Biacore) was activated by three consequent injections of 1 M NaCl, 0.05 M NaOH solution. After washing the sensor chip surface, biotinylated ACBP/DBI was immobilized on it. ACBP was diluted in HBS-EP buffer (10 mM HEPES […], 150 mM NaCl, 3 mM EDTA, and 0.005% Tween-20) at final concentration of 10 µg/mL and injected for 5 min contact time. The achieved immobilization density of ACBP was 1600 resonance units.\nAll analyses were performed in HBS-EP buffer (0.01 M HEPES pH 7.4, 0.15 M NaCl, 3 mM EDTA, 0.005% v/v Surfactant P20; 0.22 µm filtered and degassed). The system was run at flow rate of 30 μL/min. The temperature on chip surface was set to 25 °C. GABAARγ2-derived eicosapeptide or its mutated derivative (both stocked in DMSO at 1 mg/mL) were diluted in HBS-EP to 10 µM and 100 µM. The peptides were injected over immobilized ACBP/DBI and a control surface (streptavidin alone). The association and dissociation phases of the interaction were followed for 4 and 5 min, respectively. The interaction of peptides with ACBP/DBI was assessed by monitoring the dissociation from the immobilized protein. For visualization of the binding response Graph Pad Prism software was used."}, "[2]": {"test_system": "native ACBP/DBI protein (mouse liver extracts)", "assay": "Pull down / immunoprecipitation of native ACBP/DBI from liver extracts", "type": "binding", "conditions": "mouse liver protein extract (500 μg), peptide-coated beads, overnight 4 °C, immunoblot for ACBP", "procedure": "The physical interaction between the native ACBP and GABAARγ2 peptides was examined by standard immunoprecipitation (IP) and immunoblotting protocols. In detail, liver protein extracts (500 μg) were immunoprecipitated on protein A/G-Sepharose beads (Merck Millipore, Burlington, MA, USA, #GE17-0618-01) coated with (1× 2× 4×) either GABAARγ2 wild type (WT) or mutated (F77I) eicosapeptide (Biosynth ltd) or its negative control (PBS). Each IP reaction was incubated overnight (4 °C) in a rotation chamber followed by three consecutive rounds of PBS washing the next day. Each washing round included a PBS resuspension of the pellet and a re-centrifugation (12,000 × g, 4 °C). Finally, beads were resuspended in 20 μL of NUPAGE 4× buffer (Life Technologies, CA, USA, #NP0008), heated at 100 °C (10 min), followed by standard immunoblotting for the ACBP protein (Abcam #ab231910).\nFig. 5 Biophysical and biochemical detection of a direct interaction between ACBP/DBI and the GABAARγ2-derived eicosapeptide. A Schematic representation of the GABAAR and the GABAARγ2-derived eicosapeptides. B Surface plasmon resonance kinetics of ACBP-GABAARγ2-derived eicosapeptide (WT and F77I) interactions. Representative ACBP immunoblot (C) from control- or GABAARγ2-immunoprecipitated samples. Anti-GABAARγ2 immunoprecipitation (IP) assay was employed in order to validate the GABAARγ2 WT peptide interaction with native ACBP (in murine hepatic protein extracts), and quantification (D). […] For statistical analysis p value (indicating statistical comparisons with the control condition) was calculated by Mann–Whitney U-test. E Anti-GABAARγ2 IP assay to address the physical interaction between GABAARγ2 peptides and murine hepatic ACBP protein. Interaction was validated using an increasing gradient of biotinylated WT/F77I peptides that were bound on the surface of streptavidin beads as part of the IP assay. […]"}, "[3]": {"test_system": "liver autophagy, C57BL/6 mice", "assay": "Liver autophagy activation in vivo (LC3 lipidation)", "parameters": "species or system mouse", "conditions": "C57BL/6 male mice, peptide 5 mg/kg i.v. 4 h and 30 min before sacrifice, with or without leupeptin 30 mg/kg i.p., LC3 immunoblot, n = 5", "procedure": "Ten-week-old C57BL/6 male mice were injected with GABAARγ2 peptides (5 mg/kg, i.v., dissolved in PBS) 4 h and 30 min before sacrifice. For inhibition of the autophagy flux, leupeptin (Leu, 30 mg/kg B.W., dissolved in PBS) was injected 2 h before sacrifice via an intraperitoneal (i.p.) injection. Control animals were i.v. injected with the vehicle (DMSO, 0.01%) and i.p. injected with PBS. All animals were sacrificed, and livers were snap-frozen in liquid nitrogen and stored at −80 °C.\nProtein lysates were prepared from liver, epididymal white adipose tissue (eWAT), brown adipose tissue (BAT), muscle, heart or Hep55.1c cells. Immunoblot analysis was performed for GABAARγ2 (Abcam #ab87328), mouse ACBP/DBI (Abcam, #ab231910), Human ACBP (Santa-Cruz #sc-376853), MAP1LC3B (#2775, Cell Signaling Technologies), and β-actin (Abcam, #ab49900), as previously described.."}, "[4]": {"conditions": "listed as GABAARγ2-derived eicosapeptide"}},
  "note": "“Also recorded” adds a separate entry of the source.",
  "data": [
    {"sequence": "INMEYTIDIFFAQTWYDRRL [GABAARγ2-EP-WT]", "values": [
      {"measurement": "association with immobilized ACBP/DBI (SPR)", "setting": "[1]; biotinylated recombinant ACBP/DBI on SA chip (1600 RU), peptide 10 µM and 100 µM in HBS-EP, pH 7.4, 25 °C, 30 μL/min, association 4 min, WT vs F77I", "result": "associated more rapidly"},
      {"measurement": "dissociation from immobilized ACBP/DBI (SPR)", "setting": "[1]; biotinylated recombinant ACBP/DBI on SA chip (1600 RU), peptide 10 µM and 100 µM in HBS-EP, pH 7.4, 25 °C, 30 μL/min, dissociation 5 min, WT vs F77I", "result": "dissociated more slowly from ACBP/DBI than GABAARγ2-EP-F77I"},
      {"measurement": "interaction with recombinant ACBP/DBI, in words", "setting": "[1]", "result": "efficiently interacts with native and recombinant ACBP/DBI; also recorded: able to interact with ACBP/DBI"},
      {"measurement": "interaction with recombinant ACBP/DBI, in words", "setting": "[1]; [4]", "result": "validated the interaction"},
      {"measurement": "pull down of endogenous/native ACBP/DBI, in words", "setting": "[2]", "result": "efficiently interacts with native and recombinant ACBP/DBI; also recorded: able to interact with ACBP/DBI"},
      {"measurement": "pull down of endogenous/native ACBP/DBI, in words", "setting": "[2]; [4]", "result": "validated the interaction"},
      {"measurement": "activation of autophagy in the liver", "setting": "[3]", "result": "activation of autophagy in the liver was induced"},
      {"measurement": "activation of autophagy in the liver", "setting": "[3]; [4]", "result": "induced autophagy in the liver"}
    ]}
  ]
}
